Patent publication US9975907B2, “Pyrimidinones as PI3K inhibitors” (Incyte Corporation, priority 2009, dated 2018)
Structures can show the parent of a compound that is named as a salt.

target: PI3Kδ (p110δ/p85α) (Homo sapiens (Human), UniProt O00329); experiment: PI3Kδ Scintillation Proximity Assay (Assay A3); type: biochemical; conditions: column b, Assay A3 (SPA), 20 μM ATP
Excerpt: [γ-^33P]ATP (10 mCi/mL) was purchased from Perkin-Elmer (Waltham, Mass.). Lipid kinase substrate, D-myo-Phosphatidylinositol 4,5-bisphosphate (PtdIns(4,5)P2)D (+)-sn-1,2-di-O-octanoylglyceryl, 3-O-phospho linked (PIP2), CAS 204858-53-7, was purchased from Echelon Biosciences (Salt Lake City, Utah). PI3Kδ (p110δ/p85α) was purchased from Millipore (Bedford, Mass.). ATP, MgCl2, DTT, EDTA, MOPS and CHAPS were purchased from Sigma-Aldrich (St. Louis, Mo.). Wheat Germ Agglutinin (WGA) YSi SPA Scintillation Beads was purchased from GE healthcare life sciences (Piscataway, N.J.).
The kinase reaction was conducted in polystyrene 384-well matrix white plate from Thermo Fisher Scientific in a final volume of 25 μL. Inhibitors were first diluted serially in DMSO and added to the plate wells before the addition of other reaction components. The final concentration of DMSO in the assay was 0.5%. The PI3K assays were carried out at room temperature in 20 mM MOPS, pH 6.7, 10 mM MgCl2, 5 mM DTT and CHAPS 0.03%. Reactions were initiated by the addition of ATP, the final reaction mixture consisted of 20 μM PIP2, 20 μM ATP, 0.2 μCi [γ-^33P] ATP, 4 nM PI3Kδ. Reactions were incubated for 210 min and terminated by the addition of 40 μL SPA beads suspended in quench buffer: 150 mM potassium phosphate pH 8.0, 20% glycerol. 25 mM EDTA, 400 μM ATP. The final concentration of SPA beads was 1.0 mg/mL. After the plate sealing, plates were shaken overnight at room temperature and centrifuged at 1800 rpm for 10 minutes, the radioactivity of the product was determined by scintillation counting on Topcount (Perkin-Elmer). IC50 determination was performed by fitting the curve of percent control activity versus the log of the inhibitor concentration using the GraphPad Prism 3.0 software.

PI3Kδ (p110δ/p85α), sequence (O00329 whole entry, species assumed): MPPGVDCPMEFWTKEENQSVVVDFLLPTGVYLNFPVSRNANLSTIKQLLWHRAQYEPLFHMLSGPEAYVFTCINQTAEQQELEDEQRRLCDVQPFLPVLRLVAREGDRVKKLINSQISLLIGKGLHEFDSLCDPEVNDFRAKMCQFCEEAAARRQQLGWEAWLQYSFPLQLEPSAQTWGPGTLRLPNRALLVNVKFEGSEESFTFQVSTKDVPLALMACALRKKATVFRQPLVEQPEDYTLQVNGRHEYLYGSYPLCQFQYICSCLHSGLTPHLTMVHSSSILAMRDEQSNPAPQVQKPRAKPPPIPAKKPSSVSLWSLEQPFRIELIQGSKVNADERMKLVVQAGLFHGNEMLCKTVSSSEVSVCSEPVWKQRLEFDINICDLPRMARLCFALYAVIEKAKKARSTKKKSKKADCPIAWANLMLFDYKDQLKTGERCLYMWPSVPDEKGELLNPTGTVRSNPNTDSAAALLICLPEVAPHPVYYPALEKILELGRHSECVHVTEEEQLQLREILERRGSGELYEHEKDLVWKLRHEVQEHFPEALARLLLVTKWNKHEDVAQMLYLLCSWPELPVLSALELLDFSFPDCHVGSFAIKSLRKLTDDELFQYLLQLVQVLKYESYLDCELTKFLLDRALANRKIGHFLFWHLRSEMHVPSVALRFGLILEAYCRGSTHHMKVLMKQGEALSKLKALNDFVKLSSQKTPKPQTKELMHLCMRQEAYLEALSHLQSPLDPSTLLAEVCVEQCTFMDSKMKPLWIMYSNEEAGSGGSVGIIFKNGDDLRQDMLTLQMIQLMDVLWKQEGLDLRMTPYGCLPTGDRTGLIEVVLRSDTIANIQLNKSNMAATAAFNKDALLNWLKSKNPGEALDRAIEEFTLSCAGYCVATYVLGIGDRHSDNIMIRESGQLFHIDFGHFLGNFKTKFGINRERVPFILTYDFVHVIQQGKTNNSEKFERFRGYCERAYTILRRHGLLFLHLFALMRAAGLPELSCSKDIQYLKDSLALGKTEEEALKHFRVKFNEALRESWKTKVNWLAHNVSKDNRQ
PI3Kδ (p110δ/p85α), sequence (P27986 whole entry partner, species assumed): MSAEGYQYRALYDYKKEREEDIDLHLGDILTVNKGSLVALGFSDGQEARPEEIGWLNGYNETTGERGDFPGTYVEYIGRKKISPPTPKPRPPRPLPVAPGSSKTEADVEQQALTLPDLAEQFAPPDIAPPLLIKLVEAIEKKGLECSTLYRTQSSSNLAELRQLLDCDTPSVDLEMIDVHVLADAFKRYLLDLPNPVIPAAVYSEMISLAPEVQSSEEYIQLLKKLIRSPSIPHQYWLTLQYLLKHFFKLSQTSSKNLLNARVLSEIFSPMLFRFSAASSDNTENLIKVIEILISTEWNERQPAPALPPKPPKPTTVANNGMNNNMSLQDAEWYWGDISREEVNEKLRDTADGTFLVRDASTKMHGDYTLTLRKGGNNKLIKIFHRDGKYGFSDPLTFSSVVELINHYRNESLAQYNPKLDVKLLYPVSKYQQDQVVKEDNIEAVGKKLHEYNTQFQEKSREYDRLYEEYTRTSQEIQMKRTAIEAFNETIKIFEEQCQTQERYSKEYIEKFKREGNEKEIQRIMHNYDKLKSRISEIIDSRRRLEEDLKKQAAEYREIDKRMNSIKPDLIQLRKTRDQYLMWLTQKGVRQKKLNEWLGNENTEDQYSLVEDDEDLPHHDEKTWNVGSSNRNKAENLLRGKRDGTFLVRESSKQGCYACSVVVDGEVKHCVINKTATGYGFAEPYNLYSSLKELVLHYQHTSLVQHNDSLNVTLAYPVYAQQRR

IC50, 100 to 500 nM:
Cc1cccc2nc(C(C)Nc3ncnc4[nH]cnc34)c(-c3cc(F)cc(F)c3)c(=O)n12 (centres unmarked) [Example 69, 3-(3,5-Difluorophenyl)-6-methyl-2-[1-(9H-purin-6-ylamino)ethyl]-4H-pyrido[1,2-a]pyrimidin-4-one trifluoroacetic acid salt]
Cc1cccc2nc(C(C)Nc3nc(N)nc4[nH]cnc34)c(-c3ccc(C#N)cc3)c(=O)n12 (centres unmarked) [Example 62, 4-(2-{1-[(2-Amino-9H-purin-6-yl)amino]ethyl}-6-methyl-4-oxo-4H-pyrido[1,2-a]pyrimidin-3-yl)benzonitrile trifluoroacetic acid salt]
Cc1csc2nc(C(C)Nc3ncnc4[nH]cnc34)c(-c3ccncc3)c(=O)n12 (centres unmarked) [Example 19, 3-methyl-7-[1-(9H-purin-6-ylamino)ethyl]-6-pyridin-4-yl-5H-[1,3]thiazolo[3,2-a]pyrimidin-5-one]
Cc1csc2nc([C@H](C)Nc3nc(O)nc4[nH]cnc34)c(-c3cccc(F)c3)c(=O)n12 [Example 47, 6-(3-Fluorophenyl)-7-{(1S)-1-[(2-hydroxy-9H-purin-6-yl)amino]ethyl}-3-methyl-5H-[1,3]thiazolo[3,2-a]pyrimidin-5-one]
Cc1ccc(-c2c(C(C)Nc3ncnc4[nH]cnc34)nc3scc(C)n3c2=O)cc1 (centres unmarked) [Example 31, 3-methyl-6-(4-methylphenyl)-7-[1-(9H-purin-6-ylamino)ethyl]-5H-[1,3]thiazolo[3,2-a]pyrimidin-5-one trifluoroacetic acid salt]
Cc1csc2nc(C(C)Nc3ncnc4[nH]cnc34)c(-c3cccc(Cl)c3)c(=O)n12 (centres unmarked) [Example 36, 6-(3-chlorophenyl)-3-methyl-7-[1-(9H-purin-6-ylamino)ethyl]-5H-[1,3]thiazolo[3,2-a]pyrimidin-5-one trifluoroacetic acid salt]
Cc1csc2nc(C(C)Nc3nc(F)nc4[nH]cnc34)c(-c3cc(F)cc(F)c3)c(=O)n12 (centres unmarked) [Example 18, 6-(3,5-difluorophenyl)-7-{1-[(2-fluoro-9H-purin-6-yl)amino]ethyl}-3-methyl-5H-[1,3]thiazolo[3,2-a]pyrimidin-5-one]
Cc1cccc(-c2c(C(C)Nc3ncnc4[nH]cnc34)nc3cccc(C)n3c2=O)c1 (centres unmarked) [Example 51, 6-Methyl-3-(3-methylphenyl)-2-[1-(9H-purin-6-ylamino)ethyl]-4H-pyrido[1,2-a]pyrimidin-4-one trifluoroacetic acid salt]
CCc1cccc2nc(C(C)Nc3ncnc4[nH]cnc34)c(-c3cc(F)cc(F)c3)c(=O)n12 (centres unmarked) [Example 76, 3-(3,5-Difluorophenyl)-6-ethyl-2-[1-(9H-purin-6-ylamino)ethyl]-4H-pyrido[1,2-a]pyrimidin-4-one trifluoroacetic acid salt]
CC(Nc1nc(N)nc2[nH]cnc12)c1nc2sccn2c(=O)c1-c1cccc(F)c1 (centres unmarked) [Example 26, 7-{1-[(2-amino-9H-purin-6-yl)amino]ethyl}-6-(3-fluorophenyl)-5H-[1,3]thiazolo[3,2-a]pyrimidin-5-one]

IC50, 50 to 100 nM:
Cc1csc2nc(C(C)Nc3nc(N)nc4[nH]cnc34)c(-c3cncc(F)c3)c(=O)n12 (centres unmarked) [Example 38, 7-{1-[(2-amino-9H-purin-6-yl)amino]ethyl}-6-(5-fluoropyridin-3-yl)-3-methyl-5H-[1,3]thiazolo[3,2-a]pyrimidin-5-one trifluoroacetic acid salt]
Cc1cccc2nc(C(C)Nc3nc(N)nc4[nH]cnc34)c(-c3cccc(C#N)c3)c(=O)n12 (centres unmarked) [Example 84, 3-(2-{1-[(2-Amino-9H-purin-6-yl)amino]ethyl}-6-methyl-4-oxo-4H-pyrido[1,2-a]pyrimidin-3-yl)benzonitrile trifluoroacetic acid salt]

IC50, < 50 nM:
Cc1csc2nc(C(C)Nc3nc(N)nc4[nH]cnc34)c(-c3ccccc3F)c(=O)n12 (centres unmarked) [Example 33, 7-{1-[(2-amino-9H-purin-6-yl)amino]ethyl}-6-(2-fluorophenyl)-3-methyl-5H-[1,3]thiazolo[3,2-a]pyrimidin-5-one trifluoroacetic acid salt]
Cc1ccc(-c2c(C(C)Nc3ncnc4[nH]cnc34)nc3cccc(C)n3c2=O)cc1 (centres unmarked) [Example 64, 6-Methyl-3-(4-methylphenyl)-2-[1-(9H-purin-6-ylamino)ethyl]-4H-pyrido[1,2-a]pyrimidin-4-one trifluoroacetic acid salt]
Cc1cccc2nc(C(C)Nc3nc(N)nc4[nH]cnc34)c(-c3cccc(Cl)c3)c(=O)n12 (centres unmarked) [Example 54, 2-{1-[(2-Amino-9H-purin-6-yl)amino]ethyl}-3-(3-chlorophenyl)-6-methyl-4H-pyrido[1,2-a]pyrimidin-4-one trifluoroacetic acid salt]
CCc1cccc2nc(C(C)Nc3ncnc4[nH]cnc34)c(-c3ccc(F)cc3)c(=O)n12 (centres unmarked) [Example 78, 6-Ethyl-3-(4-fluorophenyl)-2-[1-(9H-purin-6-ylamino)ethyl]-4H-pyrido[1,2-a]pyrimidin-4-one trifluoroacetic acid salt]
Cc1csc2nc(C(C)Nc3ncnc4[nH]cnc34)c(-c3ccccc3F)c(=O)n12 (centres unmarked) [Example 40, 6-(2-fluorophenyl)-3-methyl-7-[1-(9H-purin-6-ylamino)ethyl]-5H-[1,3]thiazolo[3,2-a]pyrimidin-5-one trifluoroacetic acid salt]
Cc1csc2nc(C(C)Nc3ncnc4[nH]cnc34)c(-c3nccs3)c(=O)n12 (centres unmarked) [Example 20, 3-methyl-7-[1-(9H-purin-6-ylamino)ethyl]-6-(1,3-thiazol-2-yl)-5H-[1,3]thiazolo[3,2-a]pyrimidin-5-one trifluoroacetic acid salt]
Cc1csc2nc(C(C)Nc3ncnc4[nH]cnc34)c(-c3cc(F)ccc3F)c(=O)n12 (centres unmarked) [Example 45, 6-(2,5-difluorophenyl)-3-methyl-7-[1-(9H-purin-6-ylamino)ethyl]-5H-[1,3]thiazolo[3,2-a]pyrimidin-5-one trifluoroacetic acid salt]
Cc1cccc2nc(C(C)Nc3nc(N)nc4[nH]cnc34)c(-c3ccccc3Cl)c(=O)n12 (centres unmarked) [Example 58, 2-{1-[(2-Amino-9#-purin-6-yl)amino]ethyl}-3-(2-chlorophenyl)-6-methyl-4H-pyrido[1,2-a]pyrimidin-4-one trifluoroacetic acid salt]
COc1cccc(-c2c(C(C)Nc3ncnc4[nH]cnc34)nc3cccc(C)n3c2=O)c1 (centres unmarked) [Example 65, 3-(3-Methoxyphenyl)-6-methyl-2-[1-(9H-purin-6-ylamino)ethyl]-4H-pyrido[1,2-a]pyrimidin-4-one trifluoroacetic acid salt]
Cc1cccc2nc(C(C)Nc3ncnc4[nH]cnc34)c(-c3ccccc3)c(=O)n12 (centres unmarked) [Example 49, 6-Methyl-3-phenyl-2-[1-(9H-purin-6-ylamino)ethyl]-4H-pyrido[1,2-a]pyrimidin-4-one trifluoroacetic acid salt]
Cc1cccc2nc(C(C)Nc3ncnc4[nH]cnc34)c(-c3cc(F)ccc3F)c(=O)n12 (centres unmarked) [Example 67, 3-(2,5-Difluorophenyl)-6-methyl-2-[1-(9H-purin-6-ylamino)ethyl]-4H-pyrido[1,2-a]pyrimidin-4-one trifluoroacetic acid salt]
Cc1cccc2nc(C(C)Nc3ncnc4[nH]cnc34)c(-c3ccccc3F)c(=O)n12 (centres unmarked) [Example 59, 3-(2-Fluorophenyl)-6-methyl-2-[1-(9H-purin-6-ylamino)ethyl]-4H-pyrido[1,2-a]pyrimidin-4-one trifluoroacetic acid salt]

IC50, > 500 nM:
CC(Nc1ncnc2[nH]cnc12)c1nc2sccn2c(=O)c1-c1cc(F)cc(F)c1 (centres unmarked) [Example 25, 6-(3,5-difluorophenyl)-7-[1-(9H-purin-6-ylamino)ethyl]-5H-[1,3]thiazolo[3,2-a]pyrimidin-5-one]
Cc1cccc2nc(C(C)Nc3ncnc4[nH]cnc34)c(-c3ccc(Cl)cc3)c(=O)n12 (centres unmarked) [Example 55, 3-(4-Chlorophenyl)-6-methyl-2-[1-(9H-purin-6-ylamino)ethyl]-4H-pyrido[1,2-a]pyrimidin-4-one trifluoroacetic acid salt]
CC(Nc1ncnc2[nH]cnc12)c1nc2sccn2c(=O)c1-c1cccc(F)c1 (centres unmarked) [Example 28, 6-(3-fluorophenyl)-7-[1-(9H-purin-6-ylamino)ethyl]-5H-[1,3]thiazolo[3,2-a]pyrimidin-5-one]
CC(Nc1nc(N)nc2[nH]cnc12)c1nc2sccn2c(=O)c1-c1cc(F)cc(F)c1 (centres unmarked) [Example 24, 7-{1-[(2-amino-9H-purin-6-yl)amino]ethyl}-6-(3,5-difluorophenyl)-5H-[1,3]thiazolo[3,2-a]pyrimidin-5-one]
CC(Nc1ncnc2[nH]cnc12)c1nc2ccccn2c(=O)c1-c1cc(F)cc(F)c1 (centres unmarked) [Example 79, 3-(3,5-Difluorophenyl)-2-[1-(9H-purin-6-ylamino)ethyl]-4H-pyrido[1,2-a]pyrimidin-4-one trifluoroacetic acid salt]
